Assay results from ChEMBL document CHEMBL1921708, “Klymollins A-H, bioactive eunicellin-based diterpenoids from the formosan soft coral Klyxum molle” (J Nat Prod, 2011).

Columns and labels:
RAW264.7 [1] = assay: Antiinflammatory activity in LPS-stimulated mouse RAW264.7 cells assessed as reduction in iNOS protein expression at 10 uM by immunoblot analysis; type: functional; design: scale not given: the % may be the effect or the level left
HEp-2 = assay: Cytotoxicity against human Hep2 cells; type: cell-based
HeLa = assay: Cytotoxicity against human HeLa cells; type: cell-based
MCF7 = assay: Cytotoxicity against human MCF7 cells; type: cell-based
Daoy = assay: Cytotoxicity against human DaOY cells; type: cell-based
RAW264.7 [2] = assay: Antiinflammatory activity in LPS-stimulated mouse RAW264.7 cells assessed as reduction in COX2 protein expression at 10 uM by immunoblot analysis; type: functional; design: scale not given: the % may be the effect or the level left

SMILES	Activity (RAW264.7 [1]) [%]	Activity (HEp-2)	Activity (HeLa)	Activity (MCF7)	Activity (Daoy)	Activity (RAW264.7 [2]) [%]
C=C1C[C@H]2O[C@H]([C@@H]3[C@@H](C(C)C)[C@H](OC(C)=O)[C@H](OC(C)=O)[C@@]4(CO4)[C@@H]32)[C@](C)(OC(C)=O)CC[C@@H]1O (relative stereo)	42.1	Non-toxic	Non-toxic	Non-toxic	Non-toxic	
C=C1C[C@H]2O[C@H]([C@H]3[C@@H]2[C@]2(CO2)[C@@H](OC(C)=O)C[C@@H]3C(C)C)[C@](C)(OC(C)=O)CC[C@@H]1O (relative stereo)	25.1	Non-toxic	Non-toxic	Non-toxic	Non-toxic	
CC(=O)O[C@H]1[C@H](C(C)C)[C@@H]2[C@@H]([C@H]3C[C@](C)(O)[C@@H](OC(C)=O)CC[C@@](C)(OC(C)=O)[C@@H]2O3)[C@]2(CO2)[C@H]1OC(C)=O (relative stereo)	25.7	Non-toxic	Non-toxic	Non-toxic	Non-toxic	
CCCCCCCCCCCCCC(=O)O[C@H]1CC[C@@](C)(OC(C)=O)[C@@H]2O[C@H](C[C@]1(C)O)[C@@H]1[C@H]2[C@@H](C(C)C)[C@H](OC(C)=O)[C@H](OC(C)=O)[C@@]12CO2 (relative stereo)	6	Non-toxic	Non-toxic	Non-toxic	Non-toxic	8.5
CCCCCCCCCCCCCCCC(=O)O[C@H]1CC[C@@](C)(OC(C)=O)[C@@H]2O[C@H](C[C@]1(C)O)[C@@H]1[C@H]2[C@@H](C(C)C)[C@H](OC(C)=O)[C@H](OC(C)=O)[C@@]12CO2 (relative stereo)	5.2	Non-toxic	Non-toxic	Non-toxic	Non-toxic	4.4
CC(=O)O[C@H]1[C@H](C(C)C)[C@@H]2[C@@H]([C@H]3C[C@@H](C)C(=O)CC[C@@](C)(OC(C)=O)[C@@H]2O3)[C@](O)(CCl)[C@H]1OC(C)=O [KLYMOLLIN A]		Non-toxic	Non-toxic	Non-toxic	Non-toxic	
CC(=O)O[C@H]1[C@H](C(C)C)[C@@H]2[C@@H]([C@H]3C[C@H](C)C(=O)CC[C@@](C)(OC(C)=O)[C@@H]2O3)[C@](O)(CCl)[C@H]1OC(C)=O [KLYMOLLIN B]		Non-toxic	Non-toxic	Non-toxic	Non-toxic	
CC(=O)O[C@H]1[C@H](C(C)C)[C@@H]2[C@@H]([C@H]3C[C@](C)(O)[C@@H](OC=O)CC[C@@](C)(OC(C)=O)[C@@H]2O3)[C@]2(CO2)[C@H]1OC(C)=O [KLYMOLLIN H]	32.6	Non-toxic	Non-toxic	Non-toxic	Non-toxic	
